The supplement of paper PMC10307832

How the values were obtained:
Experiment in all cases: relative viability (nuclei count vs DMSO), 5 days (fraction); higher = more cells survive
[1] = compound: C(C(=O)C(=O)O)Br [Bromopyruvate] + Cc1cc(Nc2cc(N3CCN(C)CC3)nc(Sc3ccc(NC(=O)C4CC4)cc3)n2)n[nH]1 [Tozasertib] (partner 0.1 µM)
Outline: (§1)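 A single step with final 0.05% Triton X-100, 1% formaldehyde and 1 ug/ml Hoechst fixed the cells and stained nuclei 5 days after treatment. Lung cancer cell lines in 1536-well plates had been treated by pin tool the day after seeding with one drug alone or a fixed anchor-drug dose plus five library-drug doses (not always all listed) in √10 steps, and nuclei were counted on 4× images. Relative viability is the ratio of nuclei in treated wells to nuclei in vehicle wells, taken as the median of duplicate plates.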

[2] = compound: CC(O)(CS(=O)(=O)c1ccc(F)cc1)C(=O)Nc1ccc(C#N)c(C(F)(F)F)c1 [Bicalutamide] + CC1(C)CCC(c2ccc(Cl)cc2)=C(CN2CCN(c3ccc(C(=O)NS(=O)(=O)c4ccc(N[C@H](CCN5CCOCC5)CSc5ccccc5)c(S(=O)(=O)C(F)(F)F)c4)cc3)CC2)C1 [Navitoclax] (partner 0.5 µM)
Outline: as §1

[3] = compound: CC(O)(CS(=O)(=O)c1ccc(F)cc1)C(=O)Nc1ccc(C#N)c(C(F)(F)F)c1 [Bicalutamide] + C[C@@H](Oc1cc(-c2cnn(C3CCNCC3)c2)cnc1N)c1c(Cl)ccc(F)c1Cl [Crizotinib] (partner 1 µM)
Outline: as §1

[4] = compound: CC(O)(CS(=O)(=O)c1ccc(F)cc1)C(=O)Nc1ccc(C#N)c(C(F)(F)F)c1 [Bicalutamide] + Nc1nc2[nH]cc(CCc3ccc(C(=O)N[C@@H](CCC(=O)O)C(=O)O)cc3)c2c(=O)[nH]1 [Pemetrexed] (partner 0.2 µM)
Outline: as §1

Row | Cell Line | relative viability ([1]; first compound 1 µM) | relative viability ([1]; first compound 3.162 µM) | relative viability ([1]; first compound 10 µM) | relative viability ([1]; first compound 31.62 µM) | relative viability ([1]; first compound 100 µM) | relative viability ([2]; first compound 0.08 µM) | relative viability ([2]; first compound 0.253 µM) | relative viability ([2]; first compound 0.8 µM) | relative viability ([2]; first compound 2.53 µM) | relative viability ([3]; first compound 0.08 µM) | relative viability ([3]; first compound 0.253 µM) | relative viability ([3]; first compound 0.8 µM) | relative viability ([3]; first compound 2.53 µM) | relative viability ([4]; first compound 0.08 µM) | relative viability ([4]; first compound 0.253 µM) | relative viability ([4]; first compound 0.8 µM) | relative viability ([4]; first compound 2.53 µM)
1 | NCI-H1666 | 0.644 | 0.722 | 0.543 | 0.603 | 0.51 | 0.939 | 1.14 | 0.889 | 0.93 | 1.13 | 0.969 | 1.15 | 0.794 | 0.886 | 0.865 | 0.894 | 0.879
2 | LC-2-ad | 0.45 | 0.475 | 0.486 | 0.438 | 0.428 | 0.484 | 0.484 | 0.449 | 0.475 | 0.495 | 0.427 | 0.462 | 0.482 | 0.268 | 0.256 | 0.275 | 0.267
3 | SW 1573 | 0.191 | 0.184 | 0.159 | 0.171 | 0.0582 | 0.908 | 0.914 | 1.17 | 1.16 | 0.972 | 0.761 | 1.08 | 0.721 | 0.952 | 0.749 | 1.02 | 0.819
4 | Calu-6 | – | – | – | – | – | 0.895 | 0.827 | 0.842 | 0.705 | 0.865 | 0.795 | 0.914 | 0.727 | – | – | – | –
5 | NCI-H358 | 0.0956 | 0.115 | 0.104 | 0.0945 | 0.0906 | – | – | – | – | 0.831 | 0.616 | 0.44 | 0.399 | 0.174 | 0.17 | 0.218 | 0.176
6 | NCI-H2342 | 0.594 | 0.616 | 0.433 | 0.483 | 0.412 | – | – | – | – | – | – | – | – | 0.764 | 0.761 | 0.89 | 0.751
